We go through one compound from patent US10473645B2, “Methods for identifying a receptor for a ligand and uses thereof” (UNIVERSITE DE GENEVE, priority 2014, dated 2019).

One experiment relates to Olfr1178. In words: OR transcript level by RT-qPCR after in vivo odorant exposure. Also on record: species or system mouse. Particulars: 5% odorant, 5 hours. As for the experimental part: (§1) In vivo exposure to odorant: Starting 48 h before experiments, mice were habituated to pure DMSO on a cotton ball. 200 μl were pipetted directly onto the cotton and placed in the cage, replacing any cotton that was already in the cage for nest-making purposes.
On the day of the experiment, mice receiving odorants were transferred to a different room, where they were exposed to a cotton ball on which 200 μl of odorant diluted in pure DMSO were deposited. Exposures started in the morning between 8 and 10 am (that is two hours after lights were on) and mice were killed and dissected between 1 and 3 pm. […]
RNA concentrations were determined using an Amersham Ultrospec® 3100 Pro spectrophotometer, and RNA quality was evaluated with an Agilent Technologies 2100 Bioanalyzer®. […]
qPCR Ct values were analyzed using an in-house developed Microsoft Excel® macro file. […] Ct values were converted to quantities relative to the maximum for each given gene. Selected reference genes were then analyzed for variance using the geNorm algorithm. […]
Adult C57BL/6 mice were exposed to 5% acetophenone for 5 hours, and the level of transcripts of odorant receptors' genes were measured by RT-qPCR on extracts of olfactory epithelia from these mice, as described in the materials and methods section.
Background: In qPCR the cycle at which signal appears reflects the starting amount.

A further experiment relates to olfr736. Described as above. As to conditions: 5% acetophenone exposure. More on the design: species or system mouse; key: The transcript downregulation of 21 out of the 26 olfactory receptor candidates obtained by RNAseq was confirmed by qPCR; false RNAseq positive candidates, namely OR candidates for which in fact mRNA was not downregulated following acetophenone exposure. As for the experimental part:
as §1
On the day of the experiment, mice receiving odorants were transferred to a different room, where they were exposed to a cotton ball on which 200 μl of odorant diluted in pure DMSO were deposited. Exposures started in the morning between 8 and 10 am (that is two hours after lights were on) and mice were killed and dissected between 1 and 3 pm. […] If a number of different odorants were tested in the same experiment, a different overpressurized room would always be used for each odorant to avoid odor cross-contamination.
After odorant exposure, mice were killed by cervical dislocation and immediately decapitated. The main olfactory epithelia (MOE), were harvested in their entirety and transferred to a tube containing 600 μl of lysis buffer and β-mercaptoethanol (RNAeasy kit, Qiagen, following the manufacturer protocol) and a 0.5 cm diameter steel ball, and then put on ice. Samples were then homogenized using a FastPrep®-24 instrument (MP Biomedicals) at 6 m/s for 30 s and left on ice. RNA extraction was performed on all samples in parallel using the Qiagen RNeasy Mini® kit following the manufacturer's instructions. Two DNase treatments were performed on all samples: first using the Qiagen RNase-Free DNase Set® and then using the Life Technologies Ambion DNase I® kit. RNA samples were then aliquoted and stored at −80° C.
RNA concentrations were determined using an Amersham Ultrospec® 3100 Pro spectrophotometer, and RNA quality was evaluated with an Agilent Technologies 2100 Bioanalyzer®. Each reverse transcription was performed with 0.5 μg RNA using the Takara Primescript® kit, in a final volume of 10 μl. Primers for reverse transcription were equal mixtures of poly-T nucleotides and random hexamers. Negative controls (omitting the reverse transcriptase enzyme) were performed for each sample. 1/14th of the cDNA preparation was used for each triplicated qPCR reaction.
qPCR Ct values were analyzed using an in-house developed Microsoft Excel® macro file. Triplicate values were compared and outliers (values with a difference higher than 0.5 Ct to their nearest neighbor) were discarded. The number of conditions with an outlying value was always less than 10% of the total number of conditions. Ct values were converted to quantities relative to the maximum for each given gene. Selected reference genes were then analyzed for variance using the geNorm algorithm. All values were normalized with the olfactory tissue-specific genes Omp and Adcy3. β-Actin was used as a non-tissue-specific reference gene to control for differences in dissection between samples.
Mice (n=6) were exposed to 5% acetophenone or to a “neutral” control condition for 5 hours. An olfactory cDNA library corresponding to each animal was deep sequenced and the ratios of odorant receptor mRNA concentrations relative to controls were plotted (FIG. 3). […] Based on transcriptional downregulation levels observed by RNAseq following acetophenone exposure, a list of 26 candidate responsive ORs was determined (FIG. 3), that reached 74% decrease (Olfr145) or even over 80% (Olfr169) relative to controls. […] The transcript downregulation of 21 out of the 26 olfactory receptor candidates obtained by RNAseq was confirmed by qPCR.

The subject of the next experiment is OSNs expressing olfr109. Put plainly: pS6 immunolabeling with OR in situ hybridization after odorant exposure. The class given is in vivo, mouse. As to conditions: 5% acetophenone, 60 minutes. The method, then: (§2) In order to independently validate the identity of an acetophenone receptor obtained with the RNAseq approach, the potential colocalization following acetophenone exposure of a neuronal activity marker (the phosphorylated ribosomal protein S6 (pS6) (Knight et al., 2012, Cell, 151, 1126-1137) and specific olfactory receptors were evaluated. To this aim, in-situ hybridizations were performed on sections of olfactory tissue with probes targeting receptor mRNAs followed by immunolabeling of pS6. The probes used were directed against the transcripts of most of the ORs determined as responsive including Olfr983 transcripts (encoding a known acetophenone receptor), Olfr171 transcripts (encoding a known ethyl isobutyrate receptor), and Olfr145 transcripts, encoding a newly identified receptor by RNAseq. Before analysis, mice were exposed to either 5% acetophenone, 5% ethyl isobutyrate, or a negative control condition for 60 minutes. […] 66% (Olfr983) and 70% (Olfr145) of the neurons were positive for pS6 after acetophenone exposure, while only 11% of the neurons expressing Olfr171 were positive for pS6 after exposure to this compound.

The subject of a further experiment is OSNs expressing olfr1377. Described as above. Type of experiment: in vivo, mouse. As to conditions: 5% acetophenone, 60 minutes. The method, then: as §2
In the next experiment the test system is OSNs expressing olfr143. The description is as above. The class given is in vivo, mouse. Particulars: 5% acetophenone, 60 minutes. As for the experimental part: as §2
A further experiment deals with OSNs expressing olfr160. Described as above. Particulars: 5% acetophenone, 60 minutes. Type of experiment: in vivo, mouse. The method, then: as §2
The test system of a further experiment is OSNs expressing olfr19. The description is as above. Particulars: 5% acetophenone, 60 minutes. Type of experiment: in vivo, mouse. The method, then: as §2
A further experiment deals with OSNs expressing olfr229. The experiment is described as above. The class given is in vivo, mouse. As to conditions: 5% acetophenone, 60 minutes. As for the experimental part: as §2
The subject of a further experiment is OSNs expressing olfr30. The experiment is described as above. Particulars: 5% acetophenone, 60 minutes. Type of experiment: in vivo, mouse. The method, then: as §2
Another experiment concerns OSNs expressing olfr478. The experiment is described as above. Type of experiment: in vivo, mouse. Particulars: 5% acetophenone, 60 minutes. As for the experimental part:
as §2

The subject of the next experiment is OSNs expressing olfr556. The experiment is described as above. The class given is in vivo, mouse. Particulars: 5% acetophenone, 60 minutes. The method, then: as §2
For the next experiment, the system named is OSNs expressing olfr745. Described as above. Type of experiment: in vivo, mouse. Particulars: 5% acetophenone, 60 minutes. The method, then: as §2
The subject of the next experiment is OSNs expressing olfr901. Described as above. As to conditions: 5% acetophenone, 60 minutes. Type of experiment: in vivo, mouse. As for the experimental part: as §2
Another experiment concerns OSNs expressing olfr922. The experiment is described as above. As to conditions: 5% acetophenone, 60 minutes. The class given is in vivo, mouse. As for the experimental part: as §2
Another experiment deals with OSNs expressing olfr935. The description is as above. As to conditions: 5% acetophenone, 60 minutes. The class given is in vivo, mouse. The method, then: as §2
For experiment [1], the system named is neurons expressing Olfr145. Described as above. The class given is in vivo, mouse. As to conditions: 60 minutes. The method, then: as §2
In experiment [2] the test system is neurons expressing Olfr983. Described as above. Type of experiment: in vivo, mouse. As to conditions: 60 minutes. As for the experimental part:
as §2

Turning to `CC(=O)c1ccccc1` [acetophenone], the “Olfr1178 mRNA concentration increase, fold change” value in the experiment with Olfr1178 came to 1.5 fold. In addition, in the experiment with olfr736, the “olfr736 candidate OR (RNAseq) confirmed by qPCR” value was “y”. Also, the “olfr109 ps6 positive” value with OSNs expressing olfr109 is on record as “y (neuronal activation (i.e. pS6 signal in a fraction of neuron exceeding 15% relative to controls))”. For the same compound, the “olfr1377 ps6 positive” value in the experiment on OSNs expressing olfr1377 is “y (neuronal activation (i.e. pS6 signal in a fraction of neuron exceeding 15% relative to controls))”. In the experiment on OSNs expressing olfr143, the “olfr143 ps6 positive” value was “y (neuronal activation (i.e. pS6 signal in a fraction of neuron exceeding 15% relative to controls))”. Besides, the “olfr160 ps6 positive” value in the experiment with OSNs expressing olfr160 was “y (neuronal activation (i.e. pS6 signal in a fraction of neuron exceeding 15% relative to controls))”. The “olfr19 ps6 positive” value in the experiment with OSNs expressing olfr19 is “y (neuronal activation (i.e. pS6 signal in a fraction of neuron exceeding 15% relative to controls))”. Also, in the experiment on OSNs expressing olfr229, the “olfr229 ps6 positive” value was “y (neuronal activation (i.e. pS6 signal in a fraction of neuron exceeding 15% relative to controls))”. Moreover, in the experiment with OSNs expressing olfr30, the “olfr30 ps6 positive” value was “y (neuronal activation (i.e. pS6 signal in a fraction of neuron exceeding 15% relative to controls))”. Moreover, in the experiment with OSNs expressing olfr478, the “olfr478 ps6 positive” value is listed as “y (neuronal activation (i.e. pS6 signal in a fraction of neuron exceeding 15% relative to controls))”. In the experiment with OSNs expressing olfr556, the “olfr556 ps6 positive” value is on record as “y (neuronal activation (i.e. pS6 signal in a fraction of neuron exceeding 15% relative to controls))”. In the experiment with OSNs expressing olfr745, the “olfr745 ps6 positive” value is given as “y (neuronal activation (i.e. pS6 signal in a fraction of neuron exceeding 15% relative to controls))”. Besides, the “olfr901 ps6 positive” value with OSNs expressing olfr901 was “y (neuronal activation (i.e. pS6 signal in a fraction of neuron exceeding 15% relative to controls))”. Further, the “olfr922 ps6 positive” value with OSNs expressing olfr922 is listed as “y (neuronal activation (i.e. pS6 signal in a fraction of neuron exceeding 15% relative to controls))”. In addition, the “olfr935 ps6 positive” value in the experiment on OSNs expressing olfr935 is given as “y (neuronal activation (i.e. pS6 signal in a fraction of neuron exceeding 15% relative to controls))”. The “olfr145 ps6 positive” value in experiment [1] (5% acetophenone) is on record as “y (neuronal activation (i.e. pS6 signal in a fraction of neuron exceeding 15% relative to controls))”. For the same compound, in [1] (5% odorant, in vivo), the “fraction of Olfr145-expressing neurons positive for pS6” value was 70%. For the same compound, the “olfr983 ps6 positive” value in experiment [2] (5% acetophenone) is “y (neuronal activation (i.e. pS6 signal in a fraction of neuron exceeding 15% relative to controls))”. Further, the “fraction of Olfr983-expressing neurons positive for pS6” value in experiment [2] (5% odorant, in vivo) amounted to 66%.
